According to ChEMBL document CHEMBL4052772, “Design, synthesis and biological evaluation of novel 4-phenoxyquinoline derivatives containing 3-oxo-3,4-dihydroquinoxaline moiety as c-Met kinase inhibitors” (Bioorg Med Chem, 2017):

Experiments:
[1] = system: MKN-45; experiment: cells; details: Homo sapiens, MKN-45, 72 h
Description: Antiproliferative activity against human MKN45 cells after 72 hrs by MTT assay

[2] = system: A549; experiment: cells; details: Homo sapiens, A549, 72 h
Description: Antiproliferative activity against human A549 cells after 72 hrs by MTT assay

[3] = system: U-87 MG; experiment: Antiproliferative activity against human U87MG cells after 72 hrs by MTT assay
[4] = biological target: Hepatocyte growth factor receptor (Homo sapiens, UniProt P08581); experiment: Inhibition of c-Met (unknown origin) using poly (Glu, Tyr) 4:1 as substrate after 30 mins by HTRF assay
Sequence of Hepatocyte growth factor receptor (P08581 whole entry): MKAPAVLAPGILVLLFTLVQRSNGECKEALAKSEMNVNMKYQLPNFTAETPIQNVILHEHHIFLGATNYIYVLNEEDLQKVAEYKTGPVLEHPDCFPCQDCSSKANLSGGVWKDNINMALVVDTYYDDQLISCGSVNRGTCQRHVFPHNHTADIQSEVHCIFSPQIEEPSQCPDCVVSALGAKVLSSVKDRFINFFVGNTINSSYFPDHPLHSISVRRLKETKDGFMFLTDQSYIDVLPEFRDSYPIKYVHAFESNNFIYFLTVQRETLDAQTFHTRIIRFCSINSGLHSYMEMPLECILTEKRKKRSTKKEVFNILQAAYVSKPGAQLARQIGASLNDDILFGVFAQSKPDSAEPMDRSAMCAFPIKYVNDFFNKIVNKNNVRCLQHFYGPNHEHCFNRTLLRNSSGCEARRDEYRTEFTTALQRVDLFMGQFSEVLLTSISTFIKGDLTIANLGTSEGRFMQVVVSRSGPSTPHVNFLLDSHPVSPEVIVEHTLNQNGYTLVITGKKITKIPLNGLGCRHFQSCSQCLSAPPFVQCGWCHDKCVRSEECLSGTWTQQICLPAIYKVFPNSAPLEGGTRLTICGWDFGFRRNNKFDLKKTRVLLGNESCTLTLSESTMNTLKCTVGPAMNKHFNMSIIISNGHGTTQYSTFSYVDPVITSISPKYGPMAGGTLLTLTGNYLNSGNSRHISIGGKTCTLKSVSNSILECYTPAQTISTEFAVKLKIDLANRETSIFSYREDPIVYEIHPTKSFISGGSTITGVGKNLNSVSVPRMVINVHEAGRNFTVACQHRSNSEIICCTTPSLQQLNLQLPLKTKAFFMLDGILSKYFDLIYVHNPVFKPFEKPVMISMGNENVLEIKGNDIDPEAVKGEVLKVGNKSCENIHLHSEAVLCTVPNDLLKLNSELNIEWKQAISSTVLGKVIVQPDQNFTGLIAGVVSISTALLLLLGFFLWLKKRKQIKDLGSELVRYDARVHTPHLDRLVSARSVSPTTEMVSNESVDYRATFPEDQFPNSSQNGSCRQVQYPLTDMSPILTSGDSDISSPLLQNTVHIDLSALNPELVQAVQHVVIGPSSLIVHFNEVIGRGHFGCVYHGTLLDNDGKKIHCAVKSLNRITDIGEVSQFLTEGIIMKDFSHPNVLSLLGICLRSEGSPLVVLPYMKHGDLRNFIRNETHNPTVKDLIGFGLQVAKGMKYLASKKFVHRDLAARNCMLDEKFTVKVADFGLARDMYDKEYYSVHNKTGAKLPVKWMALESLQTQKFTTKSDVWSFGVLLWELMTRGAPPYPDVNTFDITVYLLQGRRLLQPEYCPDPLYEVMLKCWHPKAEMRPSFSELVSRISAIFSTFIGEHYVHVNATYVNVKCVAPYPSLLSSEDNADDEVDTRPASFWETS

[5] = system: HT-29; experiment: cells; details: Homo sapiens, HT-29, 72 h
[6] = system: NCI-H460; experiment: Antiproliferative activity against human H460 cells after 72 hrs by MTT assay; details: NCI-H460, 72 h
[7] = biological target: T1, Receptor-type tyrosine-protein kinase FLT3 (Homo sapiens, UniProt P36888); experiment: Inhibition of Flt3 (unknown origin) using poly (Glu, Tyr) 4:1 as substrate after 30 mins by HTRF assay
T1 sequence (P36888 whole entry): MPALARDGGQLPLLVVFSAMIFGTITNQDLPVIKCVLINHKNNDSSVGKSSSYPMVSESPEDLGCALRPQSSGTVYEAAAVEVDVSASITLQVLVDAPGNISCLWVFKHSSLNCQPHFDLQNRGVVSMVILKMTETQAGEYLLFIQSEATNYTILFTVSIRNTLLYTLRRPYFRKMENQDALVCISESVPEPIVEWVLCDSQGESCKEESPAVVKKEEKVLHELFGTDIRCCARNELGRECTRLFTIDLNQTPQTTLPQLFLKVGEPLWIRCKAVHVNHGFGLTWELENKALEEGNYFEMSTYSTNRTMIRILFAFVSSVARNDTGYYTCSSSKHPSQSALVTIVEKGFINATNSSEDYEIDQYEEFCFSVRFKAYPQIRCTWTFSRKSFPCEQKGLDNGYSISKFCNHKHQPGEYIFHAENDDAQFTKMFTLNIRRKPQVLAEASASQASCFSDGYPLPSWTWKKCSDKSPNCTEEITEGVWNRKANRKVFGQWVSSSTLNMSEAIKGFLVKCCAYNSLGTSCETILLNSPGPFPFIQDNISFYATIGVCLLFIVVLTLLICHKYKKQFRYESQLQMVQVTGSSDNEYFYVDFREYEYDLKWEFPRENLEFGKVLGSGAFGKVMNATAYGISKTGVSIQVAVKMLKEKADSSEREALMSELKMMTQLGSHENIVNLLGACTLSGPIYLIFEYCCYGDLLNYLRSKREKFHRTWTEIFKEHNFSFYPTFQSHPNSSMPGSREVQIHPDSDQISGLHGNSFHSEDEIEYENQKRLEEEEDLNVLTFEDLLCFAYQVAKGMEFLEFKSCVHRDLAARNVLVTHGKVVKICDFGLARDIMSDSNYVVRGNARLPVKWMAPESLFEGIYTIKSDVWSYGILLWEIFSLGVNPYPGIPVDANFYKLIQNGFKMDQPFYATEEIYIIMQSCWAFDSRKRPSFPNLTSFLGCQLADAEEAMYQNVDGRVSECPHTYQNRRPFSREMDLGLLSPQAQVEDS

[8] = biological target: Mast/stem cell growth factor receptor Kit (Homo sapiens, UniProt P10721); experiment: Inhibition of c-Kit (unknown origin) using poly (Glu, Tyr) 4:1 as substrate after 30 mins by HTRF assay
[9] = biological target: Epidermal growth factor receptor (Homo sapiens, UniProt P00533); experiment: Inhibition of EGFR (unknown origin) using poly (Glu, Tyr) 4:1 as substrate after 30 mins by HTRF assay
Sequence of Epidermal growth factor receptor (P00533 whole entry): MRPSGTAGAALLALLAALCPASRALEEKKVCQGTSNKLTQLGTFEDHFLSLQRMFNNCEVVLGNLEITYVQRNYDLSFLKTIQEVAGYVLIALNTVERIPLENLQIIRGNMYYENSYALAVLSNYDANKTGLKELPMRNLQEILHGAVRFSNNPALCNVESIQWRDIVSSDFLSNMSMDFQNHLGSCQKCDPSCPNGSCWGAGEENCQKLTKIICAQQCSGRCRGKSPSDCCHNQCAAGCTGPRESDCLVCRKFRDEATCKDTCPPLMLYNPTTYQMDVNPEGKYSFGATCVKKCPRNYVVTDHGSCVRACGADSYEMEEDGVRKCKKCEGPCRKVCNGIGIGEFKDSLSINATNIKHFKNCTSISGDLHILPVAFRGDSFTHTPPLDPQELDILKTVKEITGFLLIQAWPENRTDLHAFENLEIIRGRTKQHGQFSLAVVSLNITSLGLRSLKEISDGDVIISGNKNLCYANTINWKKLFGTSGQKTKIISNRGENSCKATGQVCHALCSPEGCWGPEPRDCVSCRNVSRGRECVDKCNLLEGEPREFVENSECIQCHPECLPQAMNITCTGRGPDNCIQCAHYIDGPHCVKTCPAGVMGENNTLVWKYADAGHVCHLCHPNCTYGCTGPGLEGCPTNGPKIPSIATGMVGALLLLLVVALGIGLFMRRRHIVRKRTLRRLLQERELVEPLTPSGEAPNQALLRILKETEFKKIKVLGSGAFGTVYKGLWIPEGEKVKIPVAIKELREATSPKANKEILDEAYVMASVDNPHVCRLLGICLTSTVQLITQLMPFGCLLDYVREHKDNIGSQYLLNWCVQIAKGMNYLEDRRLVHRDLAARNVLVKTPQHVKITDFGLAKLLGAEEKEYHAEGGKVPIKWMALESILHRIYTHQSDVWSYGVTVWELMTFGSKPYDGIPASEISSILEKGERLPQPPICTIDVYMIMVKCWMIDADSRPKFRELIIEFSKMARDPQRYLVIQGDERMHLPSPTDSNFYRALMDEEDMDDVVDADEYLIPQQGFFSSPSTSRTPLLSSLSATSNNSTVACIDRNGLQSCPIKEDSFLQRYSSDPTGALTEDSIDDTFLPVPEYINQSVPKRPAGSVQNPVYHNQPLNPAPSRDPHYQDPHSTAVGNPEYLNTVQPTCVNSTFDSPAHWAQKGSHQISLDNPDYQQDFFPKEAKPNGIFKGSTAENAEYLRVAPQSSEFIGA

[10] = biological target: ALK tyrosine kinase receptor (Homo sapiens, UniProt Q9UM73); experiment: Inhibition of ALK (unknown origin) using poly (Glu, Tyr) 4:1 as substrate after 30 mins by HTRF assay
[11] = biological target: Platelet-derived growth factor receptor alpha (Homo sapiens, UniProt P16234); experiment: Inhibition of PDGFRalpha (unknown origin) using poly (Glu, Tyr) 4:1 as substrate after 30 mins by HTRF assay
Sequence of Platelet-derived growth factor receptor alpha (P16234 whole entry): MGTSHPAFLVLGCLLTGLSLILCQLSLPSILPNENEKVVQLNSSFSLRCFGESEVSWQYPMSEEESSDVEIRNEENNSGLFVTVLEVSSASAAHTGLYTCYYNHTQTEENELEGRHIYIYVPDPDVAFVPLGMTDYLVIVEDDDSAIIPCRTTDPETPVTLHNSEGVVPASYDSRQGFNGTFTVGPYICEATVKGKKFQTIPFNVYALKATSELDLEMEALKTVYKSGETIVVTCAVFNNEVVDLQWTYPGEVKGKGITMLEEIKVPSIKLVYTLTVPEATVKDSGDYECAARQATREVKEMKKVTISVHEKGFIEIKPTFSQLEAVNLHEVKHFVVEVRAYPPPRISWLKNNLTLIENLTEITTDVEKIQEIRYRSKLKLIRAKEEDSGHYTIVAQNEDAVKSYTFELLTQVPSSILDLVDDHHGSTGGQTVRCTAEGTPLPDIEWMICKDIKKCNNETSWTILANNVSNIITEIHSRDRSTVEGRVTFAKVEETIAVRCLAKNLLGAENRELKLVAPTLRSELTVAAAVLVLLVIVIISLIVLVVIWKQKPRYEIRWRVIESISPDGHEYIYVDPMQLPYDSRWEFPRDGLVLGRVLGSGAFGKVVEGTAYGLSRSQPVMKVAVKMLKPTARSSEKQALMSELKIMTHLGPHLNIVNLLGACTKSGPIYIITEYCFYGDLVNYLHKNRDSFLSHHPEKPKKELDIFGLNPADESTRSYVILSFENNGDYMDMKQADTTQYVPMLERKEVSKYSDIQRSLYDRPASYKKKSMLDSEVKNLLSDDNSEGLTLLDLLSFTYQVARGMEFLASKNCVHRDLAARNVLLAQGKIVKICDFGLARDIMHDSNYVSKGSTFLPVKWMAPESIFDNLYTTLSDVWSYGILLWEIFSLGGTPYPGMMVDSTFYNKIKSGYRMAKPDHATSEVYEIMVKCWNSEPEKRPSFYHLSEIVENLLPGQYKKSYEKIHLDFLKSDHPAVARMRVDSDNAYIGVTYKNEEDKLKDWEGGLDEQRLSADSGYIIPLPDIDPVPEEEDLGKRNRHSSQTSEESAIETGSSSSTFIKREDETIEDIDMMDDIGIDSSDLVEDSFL

[12] = biological target: Vascular endothelial growth factor receptor 2 (Homo sapiens, UniProt P35968); experiment: Inhibition of VEGFR2 (unknown origin) using poly (Glu, Tyr) 4:1 as substrate after 30 mins by HTRF assay
Sequence of Vascular endothelial growth factor receptor 2 (P35968 whole entry): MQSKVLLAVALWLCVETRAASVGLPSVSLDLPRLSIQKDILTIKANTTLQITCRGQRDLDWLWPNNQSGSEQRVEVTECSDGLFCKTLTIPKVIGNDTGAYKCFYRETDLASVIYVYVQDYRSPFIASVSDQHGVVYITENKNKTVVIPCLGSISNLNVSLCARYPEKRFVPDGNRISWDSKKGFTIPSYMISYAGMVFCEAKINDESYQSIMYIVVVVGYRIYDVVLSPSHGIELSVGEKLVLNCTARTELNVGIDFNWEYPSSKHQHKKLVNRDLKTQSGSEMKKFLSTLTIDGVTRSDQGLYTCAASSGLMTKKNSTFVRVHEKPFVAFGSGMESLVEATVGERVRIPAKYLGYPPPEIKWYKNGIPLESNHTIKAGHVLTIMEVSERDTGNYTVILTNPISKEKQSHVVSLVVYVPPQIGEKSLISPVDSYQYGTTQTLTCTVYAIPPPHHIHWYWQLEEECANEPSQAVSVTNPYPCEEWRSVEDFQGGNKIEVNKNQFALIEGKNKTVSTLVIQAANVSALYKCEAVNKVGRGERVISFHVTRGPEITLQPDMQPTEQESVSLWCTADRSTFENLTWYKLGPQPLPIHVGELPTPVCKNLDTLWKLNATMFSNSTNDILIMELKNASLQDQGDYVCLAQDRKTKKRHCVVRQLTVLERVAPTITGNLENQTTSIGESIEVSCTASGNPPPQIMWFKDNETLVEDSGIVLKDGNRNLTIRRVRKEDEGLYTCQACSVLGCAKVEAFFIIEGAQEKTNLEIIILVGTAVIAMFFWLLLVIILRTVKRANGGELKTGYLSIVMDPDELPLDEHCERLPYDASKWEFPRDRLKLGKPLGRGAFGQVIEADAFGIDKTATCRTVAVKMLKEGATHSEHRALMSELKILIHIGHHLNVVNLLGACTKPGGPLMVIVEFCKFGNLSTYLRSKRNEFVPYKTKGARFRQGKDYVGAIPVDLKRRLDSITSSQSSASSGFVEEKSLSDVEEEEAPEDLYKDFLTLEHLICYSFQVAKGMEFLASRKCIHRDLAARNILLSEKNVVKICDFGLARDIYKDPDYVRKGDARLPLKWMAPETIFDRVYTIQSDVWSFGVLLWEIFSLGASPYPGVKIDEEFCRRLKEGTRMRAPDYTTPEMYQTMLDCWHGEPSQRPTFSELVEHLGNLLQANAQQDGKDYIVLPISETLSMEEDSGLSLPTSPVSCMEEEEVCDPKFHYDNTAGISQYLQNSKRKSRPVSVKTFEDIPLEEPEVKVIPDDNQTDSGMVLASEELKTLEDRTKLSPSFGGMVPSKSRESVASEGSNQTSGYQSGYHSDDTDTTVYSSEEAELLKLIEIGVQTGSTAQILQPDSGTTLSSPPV

[13] = biological target: Macrophage-stimulating protein receptor (Homo sapiens, UniProt Q04912); experiment: Inhibition of Ron (unknown origin) using poly (Glu, Tyr) 4:1 as substrate after 30 mins by HTRF assay

| IC50 [1] | IC50 [2] | IC50 [3] | IC50 [4] | IC50 [5] | IC50 [6] | IC50 [7] | IC50 [8] | IC50 [9] | IC50 [10] | IC50 [11] | IC50 [12] | IC50 [13] | Compound |
| --- | --- | --- | --- | --- | --- | --- | --- | --- | --- | --- | --- | --- | --- |
| 29 nM | 33 nM | 650 nM | 4.52 nM | 170 nM | 230 nM | – | – | – | – | – | – | – | COc1cc2c(Oc3ccc(NC(=O)c4nc5ccccc5n(-c5ccccc5F)c4=O)cc3F)ccnc2cc1OCCCN1CCOCC1 |
| 580 nM | 2160 nM | 4170 nM | – | 1030 nM | 1120 nM | – | – | – | – | – | – | – | COc1cc2c(Oc3ccc(NC(=O)c4nc5ccccc5n(-c5ccc(C)cc5)c4=O)cc3F)ccnc2cc1OCCCN1CCOCC1 |
| 390 nM | 310 nM | 1850 nM | – | 200 nM | 400 nM | – | – | – | – | – | – | – | COc1cc2c(Oc3ccc(NC(=O)c4nc5ccccc5n(-c5cccc(F)c5)c4=O)cc3F)ccnc2cc1OCCCN1CCOCC1 |
| – | – | – | 13.1 nM | – | – | – | – | – | – | – | – | – | COc1cc2c(Oc3ccc(NC(=O)c4nc5ccccc5n(-c5ccccc5F)c4=O)cc3F)ccnc2cc1OCCCN1CCC(C)CC1 |
| – | – | – | 0.9 nM | – | – | 269 nM | 2.45 nM | 981 nM | 2840 nM | 19.1 nM | 152 nM | 82.6 nM | COc1cc2c(Oc3ccc(NC(=O)c4nc5ccccc5n(-c5ccc(F)cc5)c4=O)cc3F)ccnc2cc1OCCCN1CCN(C)CC1 |
| 260 nM | 330 nM | 1220 nM | – | 200 nM | 290 nM | – | – | – | – | – | – | – | COc1cc2c(Oc3ccc(NC(=O)c4nc5ccccc5n(-c5ccc(OC(F)(F)F)cc5)c4=O)cc3F)ccnc2cc1OCCCN1CCOCC1 |
| 26 nM | 30 nM | 810 nM | 2.35 nM | 110 nM | 140 nM | – | – | – | – | – | – | – | COc1cc2c(Oc3ccc(NC(=O)c4nc5ccccc5n(-c5ccc(F)cc5)c4=O)cc3F)ccnc2cc1OCCCN1CCOCC1 |
| 340 nM | 240 nM | 980 nM | – | 330 nM | 530 nM | – | – | – | – | – | – | – | COc1cc2c(Oc3ccc(NC(=O)c4nc5ccccc5n(-c5cccc(Cl)c5)c4=O)cc3F)ccnc2cc1OCCCN1CCOCC1 |
| 29 nM | 42 nM | 1060 nM | 6.76 nM | 160 nM | 280 nM | – | – | – | – | – | – | – | COc1cc2c(Oc3ccc(NC(=O)c4nc5ccccc5n(-c5ccc(Cl)cc5)c4=O)cc3F)ccnc2cc1OCCCN1CCOCC1 |
| 660 nM | 1720 nM | > 32000 nM | – | 690 nM | 1850 nM | – | – | – | – | – | – | – | COc1ccc(-n2c(=O)c(C(=O)Nc3ccc(Oc4ccnc5cc(OCCCN6CCOCC6)c(OC)cc45)c(F)c3)nc3ccccc32)cc1 |
| – | – | – | 3.57 nM | – | – | – | – | – | – | – | – | – | COc1cc2c(Oc3ccc(NC(=O)c4nc5ccccc5n(-c5ccc(F)cc5)c4=O)cc3F)ccnc2cc1OCCCN1CCC(C)CC1 |
| – | – | – | 8.03 nM | – | – | – | – | – | – | – | – | – | COc1cc2c(Oc3ccc(NC(=O)c4nc5ccccc5n(-c5ccc(F)cc5)c4=O)cc3F)ccnc2cc1OCCCN1CCCCC1 |
| 860 nM | 5110 nM | 16200 nM | – | 1290 nM | 2050 nM | – | – | – | – | – | – | – | COc1ccc(-n2c(=O)c(C(=O)Nc3ccc(Oc4ccnc5cc(OCCCN6CCOCC6)c(OC)cc45)c(F)c3)nc3ccccc32)c(OC)c1 |
| 110 nM | 320 nM | 1170 nM | – | 170 nM | 210 nM | – | – | – | – | – | – | – | COc1cc2c(Oc3ccc(NC(=O)c4nc5ccccc5n(-c5ccc(Br)cc5)c4=O)cc3F)ccnc2cc1OCCCN1CCOCC1 |
| 75 nM | 170 nM | 5040 nM | – | 590 nM | 640 nM | – | – | – | – | – | – | – | COc1cc2c(Oc3ccc(NC(=O)c4nc5ccccc5n(-c5ccc(Cl)cc5Cl)c4=O)cc3F)ccnc2cc1OCCCN1CCOCC1 |
| 25 nM | 50 nM | 1500 nM | 3.23 nM | 150 nM | 140 nM | – | – | – | – | – | – | – | COc1cc2c(Oc3ccc(NC(=O)c4nc5ccccc5n(-c5ccccc5Cl)c4=O)cc3F)ccnc2cc1OCCCN1CCOCC1 |
| 82 nM | 410 nM | 1720 nM | – | 200 nM | 1040 nM | – | – | – | – | – | – | – | COc1cc2c(Oc3ccc(NC(=O)c4nc5ccccc5n(-c5ccccc5)c4=O)cc3F)ccnc2cc1OCCCN1CCOCC1 |
| 560 nM | 220 nM | 1780 nM | – | 190 nM | 280 nM | – | – | – | – | – | – | – | COc1cc2c(Oc3ccc(NC(=O)c4nc5ccccc5n(-c5ccccc5C(F)(F)F)c4=O)cc3F)ccnc2cc1OCCCN1CCOCC1 |
